Source: article PMC6683035, “Extra Virgin Olive Oil Contains a Phenolic Inhibitor of the Histone Demethylase LSD1/KDM1A” (Nutrients, 2019)

Molecular target: T1, LSD1 (lysine-specific histone demethylase 1A, KDM1A) (Homo sapiens, UniProt O60341)
T1 construct: recombinant human LSD1 (BPS#50103)
Assay: AlphaScreen demethylase assay with biotinylated histone H3 peptide substrate and purified recombinant LSD1
Type: biochemical

C/C=C(/C=O)[C@@H](CC=O)CC(=O)OCCc1ccc(O)c(O)c1 [oleacein]
IC50: ~2500 nM
